# Test results taken from ChEMBL document CHEMBL3885861, “Open TG-GATES”.
# Species: Rattus norvegicus
# Assay: Open TG-GATES - Regimen: Daily Repeat
# Format: toxicity, organism-based, Sprague-Dawley
# Set-up: regimen Daily Repeat, gender Male, age 6 weeks
# Settings: in vivo, po, route gavage; for Bas / Eos / Fbg / Ht / MCHC / Mono / Plat / RBC / Ret / WBC / MCV: tissue Blood; for KIDNEY_L / KIDNEY_R / KIDNEY_TOTAL: tissue Kidney; for ALT / AST / CRE / DBIL / GLC / IP / K / LDH / PL / RALB / TBIL / TC / TG / TP / gamma-GTP: tissue Plasma
# [1] = 0 mg/kg, 72 h, dose level Control, time 3 day
# [2] = 0 mg/kg, […], dose level Control, time 7 day
# [3] = 0 mg/kg, […], dose level Control, time 14 day
# [4] = 0 mg/kg, […], dose level Control, time 28 day
# [5] = 10 mg/kg, 72 h, dose level Low, time 3 day
# [6] = 10 mg/kg, […], dose level Low, time 7 day
# [7] = 10 mg/kg, […], dose level Low, time 14 day
# [8] = 10 mg/kg, […], dose level Low, time 28 day
smiles,measurement,setting,value
CC(C)OC(=O)C(C)(C)Oc1ccc(C(=O)c2ccc(Cl)cc2)cc1 [FENOFIBRATE],TERMINAL_BW,[1],218.5 g
same,Bas,[1],0.2%
same,Eos,[1],1.2%
same,Fbg,[1],275 mg/dL
same,Ht,[1],39.9%
same,MCHC,[1],33%
same,Mono,[1],3.2%
same,Plat,[1],108.4 x10_4/uL
same,RBC,[1],625.4 x10_4/ul
same,Ret,[1],7.7%
same,WBC,[1],80.3 x10_2/uL
same,KIDNEY_L,[1],1 g
same,KIDNEY_R,[1],0.9 g
same,KIDNEY_TOTAL,[1],1.9 g
same,ALT,[1],44.4 IU/L
same,AST,[1],69 IU/L
same,CRE,[1],0.2 mg/dL
same,DBIL,[1],0.014 mg/dL
same,GLC,[1],180.4 mg/dL
same,IP,[1],8.3 mg/dL
same,K,[1],4.3 meq/L
same,LDH,[1],75.2 IU/L
same,PL,[1],150.2 mg/dL
same,RALB,[1],2.6 g/dL
same,TBIL,[1],0.042 mg/dL
same,TC,[1],76.8 mg/dL
same,TG,[1],86 mg/dL
same,TP,[1],5.6 g/dL
same,gamma-GTP,[1],1.2 IU/L
same,TERMINAL_BW,[2],254.4 g
same,TERMINAL_BW,[3],310.8 g
same,TERMINAL_BW,[4],390.8 g
same,Bas,[2],0%
same,Eos,[2],1%
same,Fbg,[2],310.4 mg/dL
same,Ht,[2],41.5%
same,MCHC,[2],32.7%
same,Mono,[2],2.8%
same,Plat,[2],113.6 x10_4/uL
same,RBC,[2],650 x10_4/ul
same,Ret,[2],6.1%
same,WBC,[2],94.9 x10_2/uL
same,Bas,[3],0%
same,Eos,[3],1%
same,Fbg,[3],309.8 mg/dL
same,Ht,[3],43.2%
same,MCHC,[3],33.2%
same,Mono,[3],2.2%
same,Plat,[3],111 x10_4/uL
same,RBC,[3],692.6 x10_4/ul
same,Ret,[3],4.5%
same,WBC,[3],81.5 x10_2/uL
same,Bas,[4],0.4%
same,Eos,[4],1.2%
same,Fbg,[4],270.6 mg/dL
same,Ht,[4],45.9%
same,MCHC,[4],33.9%
same,MCV,[4],59.2 fL
same,Mono,[4],2.2%
same,Plat,[4],101.9 x10_4/uL
same,RBC,[4],774.4 x10_4/ul
same,Ret,[4],2.5%
same,WBC,[4],107.1 x10_2/uL
same,KIDNEY_L,[2],1.1 g
same,KIDNEY_R,[2],1.1 g
same,KIDNEY_TOTAL,[2],2.1 g
same,KIDNEY_L,[3],1.2 g
same,KIDNEY_R,[3],1.2 g
same,KIDNEY_TOTAL,[3],2.4 g
same,KIDNEY_L,[4],1.3 g
same,KIDNEY_R,[4],1.3 g
same,KIDNEY_TOTAL,[4],2.5 g
same,ALT,[2],47.8 IU/L
same,AST,[2],72.2 IU/L
same,CRE,[2],0.2 mg/dL
same,DBIL,[2],0.012 mg/dL
same,GLC,[2],187.8 mg/dL
same,IP,[2],7.9 mg/dL
same,K,[2],4.3 meq/L
same,LDH,[2],89.6 IU/L
same,PL,[2],147.8 mg/dL
same,RALB,[2],2.7 g/dL
same,TBIL,[2],0.036 mg/dL
same,TC,[2],72.2 mg/dL
same,TG,[2],122.6 mg/dL
same,TP,[2],5.8 g/dL
same,gamma-GTP,[2],1 IU/L
same,ALT,[3],40.8 IU/L
same,AST,[3],65.8 IU/L
same,CRE,[3],0.2 mg/dL
same,DBIL,[3],0.014 mg/dL
same,GLC,[3],188.2 mg/dL
same,IP,[3],7.5 mg/dL
same,K,[3],4.3 meq/L
same,LDH,[3],106.6 IU/L
same,PL,[3],144.8 mg/dL
same,RALB,[3],2.7 g/dL
same,TBIL,[3],0.038 mg/dL
same,TC,[3],64.6 mg/dL
same,TG,[3],188 mg/dL
same,TP,[3],5.9 g/dL
same,gamma-GTP,[3],1 IU/L
same,ALT,[4],40.2 IU/L
same,AST,[4],65.8 IU/L
same,CRE,[4],0.2 mg/dL
same,DBIL,[4],0.012 mg/dL
same,GLC,[4],186 mg/dL
same,IP,[4],7.1 mg/dL
same,K,[4],3.6 meq/L
same,LDH,[4],90 IU/L
same,PL,[4],142 mg/dL
same,RALB,[4],2.8 g/dL
same,TBIL,[4],0.042 mg/dL
same,TC,[4],71.4 mg/dL
same,TG,[4],117.8 mg/dL
same,TP,[4],6.3 g/dL
same,gamma-GTP,[4],1.2 IU/L
same,TERMINAL_BW,[5],221.1 g
same,Bas,[5],0.4%
same,Eos,[5],1.4%
same,Fbg,[5],269.8 mg/dL
same,Ht,[5],39.2%
same,MCHC,[5],33.1%
same,Mono,[5],3%
same,Plat,[5],113.1 x10_4/uL
same,RBC,[5],620.2 x10_4/ul
same,Ret,[5],7.2%
same,WBC,[5],80.5 x10_2/uL
same,KIDNEY_L,[5],1 g
same,KIDNEY_R,[5],1 g
same,KIDNEY_TOTAL,[5],2 g
same,ALT,[5],49 IU/L
same,AST,[5],76.6 IU/L
same,CRE,[5],0.2 mg/dL
same,DBIL,[5],0.012 mg/dL
same,GLC,[5],182.8 mg/dL
same,IP,[5],8.3 mg/dL
same,K,[5],4.1 meq/L
same,LDH,[5],74 IU/L
same,PL,[5],148.8 mg/dL
same,RALB,[5],2.6 g/dL
same,TBIL,[5],0.04 mg/dL
same,TC,[5],80.4 mg/dL
same,TG,[5],52.4 mg/dL
same,TP,[5],5.6 g/dL
same,gamma-GTP,[5],1.2 IU/L
same,TERMINAL_BW,[6],253.9 g
same,TERMINAL_BW,[7],314.5 g
same,TERMINAL_BW,[8],385.8 g
same,Bas,[6],0.2%
same,Eos,[6],1%
same,Fbg,[6],280.8 mg/dL
same,Ht,[6],41%
same,MCHC,[6],33.1%
same,Mono,[6],2.2%
same,Plat,[6],136.5 x10_4/uL
same,RBC,[6],646.8 x10_4/ul
same,Ret,[6],6.2%
same,WBC,[6],99.8 x10_2/uL
same,Bas,[7],0%
same,Eos,[7],1%
same,Fbg,[7],309.6 mg/dL
same,Ht,[7],42.6%
same,MCHC,[7],33.5%
same,Mono,[7],3%
same,Plat,[7],123.9 x10_4/uL
same,RBC,[7],687.6 x10_4/ul
same,Ret,[7],4.5%
same,WBC,[7],88.4 x10_2/uL
same,Bas,[8],0%
same,Eos,[8],1.2%
same,Fbg,[8],267 mg/dL
same,Ht,[8],44.6%
same,MCHC,[8],33.7%
same,MCV,[8],57.9 fL
same,Mono,[8],2.4%
same,Plat,[8],105.5 x10_4/uL
same,RBC,[8],770.4 x10_4/ul
same,Ret,[8],2.1%
same,WBC,[8],88.4 x10_2/uL
same,KIDNEY_L,[6],1.1 g
same,KIDNEY_R,[6],1.1 g
same,KIDNEY_TOTAL,[6],2.1 g
same,KIDNEY_L,[7],1.3 g
same,KIDNEY_R,[7],1.3 g
same,KIDNEY_TOTAL,[7],2.6 g
same,KIDNEY_L,[8],1.5 g
same,KIDNEY_R,[8],1.5 g
same,KIDNEY_TOTAL,[8],2.9 g
same,ALT,[6],45.2 IU/L
same,AST,[6],72.8 IU/L
same,CRE,[6],0.2 mg/dL
same,DBIL,[6],0.01 mg/dL
same,GLC,[6],187.2 mg/dL
same,IP,[6],8.1 mg/dL
same,K,[6],4.4 meq/L
same,LDH,[6],101.2 IU/L
same,PL,[6],131.8 mg/dL
same,RALB,[6],2.7 g/dL
same,TBIL,[6],0.026 mg/dL
same,TC,[6],65.6 mg/dL
same,TG,[6],74.2 mg/dL
same,TP,[6],5.8 g/dL
same,gamma-GTP,[6],1 IU/L
same,ALT,[7],39.8 IU/L
same,AST,[7],64 IU/L
same,CRE,[7],0.2 mg/dL
same,DBIL,[7],0.014 mg/dL
same,GLC,[7],193.2 mg/dL
same,IP,[7],7.7 mg/dL
same,K,[7],4.3 meq/L
same,LDH,[7],84 IU/L
same,PL,[7],132.4 mg/dL
same,RALB,[7],2.7 g/dL
same,TBIL,[7],0.03 mg/dL
same,TC,[7],57.2 mg/dL
same,TG,[7],124.8 mg/dL
same,TP,[7],6 g/dL
same,gamma-GTP,[7],0.8 IU/L
same,ALT,[8],40.2 IU/L
same,AST,[8],63.2 IU/L
same,CRE,[8],0.2 mg/dL
same,DBIL,[8],0.01 mg/dL
same,GLC,[8],187.6 mg/dL
same,IP,[8],7.2 mg/dL
same,K,[8],4.2 meq/L
same,LDH,[8],101.6 IU/L
same,PL,[8],136.2 mg/dL
same,RALB,[8],2.8 g/dL
same,TBIL,[8],0.028 mg/dL
same,TC,[8],64.6 mg/dL
same,TG,[8],100 mg/dL
same,TP,[8],6.4 g/dL
same,gamma-GTP,[8],1 IU/L
